Data: patent US7109220B2, “Amino substituted pyridinyl methanone compounds useful in treating kinase disorders” (Janssen Pharmaceutica N.V., priority 2003, dated 2006)

Tests used:
VEGF-R2 kinase = molecular target: T1, VEGF-R2 kinase (Rattus norvegicus, UniProt O08775); experiment: VEGF-R2 Kinase Screening Assay; type: biochemical; conditions: soluble rat VEGF-R2 kinase, 10 μM ATP; read-out: VEGF-R IC50
T1 construct: polyhistidine (N)
Description: (§1) A kinase reaction mixture was prepared containing 50 mM Tris-HCl pH=8, 10 mM MgCl2, 0.1 mM Na3PO4, 1 mM DTT, 10 μM ATP, 0.025 uM biotinylated peptide substrate and 0.8 μCuries per well^33P-γ-ATP [2000–3000 Ci/mmol]. 70 μL of the kinase reaction mixture was dispensed into the well of a streptavidin coated FlashPlate™ (Cat. #SMP103, NEN, Boston, Mass.). 1 μL of test compound stock in 100% DMSO was added to the wells resulting in a final concentration of 1% DMSO in the mixture with a 100 μL final reaction volume. Soluble rat VEGF-R2 kinase^3 was diluted in 50 mM Tris-HCl pH=8.0, 0.1% BSA at a concentration of 5 ng per microliter and 30 μL (150 ng enzyme per test well) was added to each well to initiate the reaction. The reaction was incubated for one hour at 30° C. At the end of the 1-hour incubation, the reaction was terminated by aspirating the reaction mixture from the plate and washing the wells twice with PBS containing 100 mM EDTA. The PLC1 biotinylated peptide substrate became immobilized on the Flashplate™ and the incoporation of ^33P-γ-ATP was measured by reading the plate on a scintillation counter. Inhibition of the enzymatic activity of the VEGF-R was measured by observing a reduced amount of ^33P-γ-ATP incorporated into the immobilized peptide. ^3VEGF-R2 kinase (Vascular Endothelial Growth Factor Receptor-2): a fusion protein containing a polyhistidine tag at the N-terminus followed by amino acids 786–1343 of the rat VEGF-R2 kinase domain GenBank Accession #U93306); Peptide Substrate (Biotin)KHKKLAEGSAYEEV-Amide
(§2) IC50 values listed as >10 or >100 indicate no observed 50% inhibition at the highest dose tested, nor was an inhibition maximum observed.

HCT-116 colon carcinoma = experiment: Inhibition of Cell Proliferation (14C-thymidine incorporation), HCT-116; type: cell-based; conditions: Homo sapiens
Description: (§3) The ability of a test compound to inhibit the proliferation of cell growth was determined by measuring incorporation of ^14C-labelled thymidine into newly synthesized DNA within the cells. This method was used on cell lines derived from carcinomas originating from several tissues such as HeLa cervical adenocarcinoma (American Type Culture Collection (ATCC), Virginia, Cat. #CCL-2), HCT-116 colon carcinoma (CCL-247), MDA-MB-231 (Xenogen Corp.), PC-3 prostate adenocarcinoma (ATCC CRL-1435) and A375 malignant melanoma (ATCC CRL-1619).
(§4) Using this method, the effect of a compound on cell growth for cells with many different phenotypes can be determined. Cells were trypsinized and counted and 3000–8000 cells were added to each well of a 96-well CytoStar tissue culture treated scintillating microplate (Amersham #RPNQ0160) in complete medium in a volume of 100 μl. Cells were incubated for 24 hours in complete medium at 37° C. in an atmosphere containing 5% CO2. 1 μL of test compound in 100% DMSO was then added to the wells of the plate. DMSO only was added to control wells. Cells were incubated for 24 more hours in complete medium at 37° C. in an atmosphere containing 5% CO2. […] The degree of methyl ^14C-thymidine incorporation was quantified on a Packard Top Count.

HER2 kinase = molecular target: T2, HER2 kinase (Homo sapiens, UniProt P04626); experiment: HER-2 Kinase Screening Assay; type: biochemical; conditions: HER2 cytoplasmic domain construct, 10 μM ATP
T2 construct: polyhistidine (N); 24 additional non-native amino acids (between the His tag and HER2) (N)
T2 sequence (P04626 676-1255 limits assumed): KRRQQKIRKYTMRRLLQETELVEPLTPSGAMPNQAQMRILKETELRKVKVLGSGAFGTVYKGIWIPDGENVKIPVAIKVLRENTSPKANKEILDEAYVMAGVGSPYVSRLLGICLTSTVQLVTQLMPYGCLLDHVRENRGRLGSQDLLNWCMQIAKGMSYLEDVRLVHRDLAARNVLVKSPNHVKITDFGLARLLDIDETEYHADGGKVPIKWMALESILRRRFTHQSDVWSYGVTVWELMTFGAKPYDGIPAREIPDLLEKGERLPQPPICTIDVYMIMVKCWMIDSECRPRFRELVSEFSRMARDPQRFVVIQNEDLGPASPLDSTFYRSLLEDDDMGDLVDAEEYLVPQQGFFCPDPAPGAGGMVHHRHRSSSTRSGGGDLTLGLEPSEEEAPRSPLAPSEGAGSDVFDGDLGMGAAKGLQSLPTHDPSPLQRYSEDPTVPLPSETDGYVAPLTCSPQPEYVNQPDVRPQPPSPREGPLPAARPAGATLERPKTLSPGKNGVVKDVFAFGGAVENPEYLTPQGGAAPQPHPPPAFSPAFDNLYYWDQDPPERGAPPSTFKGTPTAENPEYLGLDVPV
Description: as §1
Using the procedure and materials of Example 3, replacing VEGF-R2 kinase with HER2^4, the IC50 data for HER2 kinase is shown in Table 4. ^4HER2 (Human Epidermal Growth Factor Receptor-2): a construct containing a polyhistidine tag at the N-terminus followed by 24 additional non-native amino acids beginning at amino acid 676 (Accession number M11730) followed by the remainder of the HER2 cytoplasmic domain; Peptide Substrate (Biotin)KHKKLAEGSAYEEV-Amide.
IC50 values listed as >100 indicate no observed 50% inhibition at the highest dose tested, nor was an inhibition maximum observed.

CDK2:Cyclin-E = molecular target: T3, CDK2:Cyclin-E (Homo sapiens, UniProt P24941); experiment: CDK2 Screening Assay; type: biochemical; conditions: 10 μM ATP, histone-H1 peptide substrate
T3 construct: purchased Upstate Biotechnology, Lake Placid, N.Y
Description: (§5) A kinase reaction mixture was prepared containing 50 mM Tris-HCl pH=8, 10 mM MgCl2, 0.1 mM Na3PO4, 1 mM DTT, 10 μM ATP, 0.025 μM biotinylated histone-H1 peptide substrate and 0.2 μCuries per well^33P-γ-ATP [2000–3000 Ci/mmol]. 70 μL of the kinase reaction mixture was dispensed into the well of a streptavidin coated FlashPlate™ (Cat. #SMP103, NEN, Boston, Mass.). Then 1 μL of test compound stock in 100% DMSO was added to the wells resulting in a final concentration of 1% DMSO in the reaction with a 100 μL final reaction volume. CDK1:Cyclin-B protein^1 was diluted in 50 mM Tris-HCl pH=8.0, 0.1% BSA at a concentration of 1 ng per microliter. 30 μL (30 ng enzyme per test well) was added to each well to initiate the reaction, The reaction was incubated for one hour at 30° C. At the end of the 1-hour incubation, the reaction was terminated by aspirating the reaction mixture from the plate and washing the wells twice with PBS containing 100 mM EDTA. The histone-H1 biotinylated peptide substrate became immobilized on the Flashplate™ and the incorporation of ^33P-γ-ATP was measured by reading the plate on a scintillation counter. Inhibition of the enzymatic activity of CDK1 was measured by observing a reduced amount of ^33P-γ-ATP incorporated into the immobilized peptide. ^1CDK1 (cyclin dependent kinase 1) was isolated from insect cells expressing both the human CDK1 catalytic subunit and its positive regulatory subunit Cyclin B (CDK1: New England Biolabs, Beverly, Mass., Cat. #6020; Cyclin-B: BIOMOL, Plymouth Meeting, Pa., Cat. #SE-195); Peptide Substrate (Biotin)KTPKKAKKPKTPKKAKKL-Amide.
Using the procedure and materials of Example 1, replacing CDK1:Cyclin-B protein with CDK2:Cyclin-E protein^2, the IC50 data for CDK2 is shown in Table 2. ^2CDK2 (cyclin dependent kinase 2) in complex with cyclin E is commercially available (Upstate Biotechnology, Lake Placid, N.Y.); Peptide Substrate (Biotin)KTPKKAKKPKTPKKAKKL-Amide
IC50 values listed as ˜100 indicate no observed 50% inhibition at the highest dose tested, nor was an inhibition maximum observed.

CDK1:Cyclin-B = molecular target: T4, CDK1:Cyclin-B (Homo sapiens, UniProt P06493); experiment: CDK1 Screening Assay; type: biochemical; conditions: 10 μM ATP, histone-H1 peptide substrate, 1 hour at 30° C.
T4 construct: purchased New England Biolabs, Beverly, Mass; (CDK1); BIOMOL, Plymouth Meeting, Pa; (Cyclin-B) #6020 (CDK1); #SE-195 (Cyclin-B); host or cells: insect cells
T4 sequence (P06493 whole entry): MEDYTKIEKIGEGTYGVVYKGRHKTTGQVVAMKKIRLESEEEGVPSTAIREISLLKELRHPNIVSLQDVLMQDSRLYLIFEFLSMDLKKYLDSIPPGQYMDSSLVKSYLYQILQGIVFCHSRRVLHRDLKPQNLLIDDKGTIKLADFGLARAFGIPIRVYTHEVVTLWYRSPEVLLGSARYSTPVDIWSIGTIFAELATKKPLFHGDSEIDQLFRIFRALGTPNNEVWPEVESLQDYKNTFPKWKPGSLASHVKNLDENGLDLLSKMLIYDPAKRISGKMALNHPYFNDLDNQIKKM
T4 sequence (P14635 whole entry partner): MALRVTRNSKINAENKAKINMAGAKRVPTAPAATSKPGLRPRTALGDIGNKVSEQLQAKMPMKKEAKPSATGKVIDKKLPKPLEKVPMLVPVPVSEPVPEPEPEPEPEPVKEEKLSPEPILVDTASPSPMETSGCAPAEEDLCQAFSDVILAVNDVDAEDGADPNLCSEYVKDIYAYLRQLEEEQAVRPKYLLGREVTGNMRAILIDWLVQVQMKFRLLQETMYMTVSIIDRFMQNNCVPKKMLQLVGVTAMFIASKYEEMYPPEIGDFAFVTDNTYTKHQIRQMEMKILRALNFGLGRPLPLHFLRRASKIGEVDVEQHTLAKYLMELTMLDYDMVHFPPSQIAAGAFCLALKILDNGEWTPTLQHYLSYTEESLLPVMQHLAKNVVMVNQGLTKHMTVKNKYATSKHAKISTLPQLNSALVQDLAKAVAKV
Description: as §5, §2

A375 malignant melanoma = experiment: Inhibition of Cell Proliferation (14C-thymidine incorporation), A375; type: cell-based; conditions: Homo sapiens, A-375
Description: as §3, §4

[1] = system: HeLa cervical adenocarcinoma; experiment: Inhibition of Cell Proliferation (14C-thymidine incorporation), HeLa; type: cell-based; conditions: Homo sapiens
Description: as §3, §4

T1 sequence (O08775 786-1343): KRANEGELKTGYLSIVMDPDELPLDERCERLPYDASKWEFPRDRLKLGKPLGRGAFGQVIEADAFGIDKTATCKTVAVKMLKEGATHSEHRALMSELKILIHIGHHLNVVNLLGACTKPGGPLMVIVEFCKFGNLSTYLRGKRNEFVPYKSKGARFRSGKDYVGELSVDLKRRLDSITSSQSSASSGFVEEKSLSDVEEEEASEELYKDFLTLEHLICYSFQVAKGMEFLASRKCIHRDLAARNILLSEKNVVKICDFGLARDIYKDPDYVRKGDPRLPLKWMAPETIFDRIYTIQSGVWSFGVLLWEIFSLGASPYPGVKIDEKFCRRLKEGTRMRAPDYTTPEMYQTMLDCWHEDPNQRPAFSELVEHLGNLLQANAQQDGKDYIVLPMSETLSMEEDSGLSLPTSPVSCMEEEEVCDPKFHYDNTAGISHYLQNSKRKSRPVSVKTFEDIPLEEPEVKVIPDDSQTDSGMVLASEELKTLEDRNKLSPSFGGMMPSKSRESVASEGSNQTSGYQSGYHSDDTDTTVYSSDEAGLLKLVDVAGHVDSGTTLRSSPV

| melting point | Compound | IC50 (VEGF-R2 kinase) [µM] | IC50 (HCT-116 colon carcinoma) [µM] | IC50 (HER2 kinase) [µM] | IC50 (CDK2:Cyclin-E) [µM] | IC50 (CDK1:Cyclin-B) [µM] | IC50 (A375 malignant melanoma) [µM] | IC50 [1] [µM] |
| --- | --- | --- | --- | --- | --- | --- | --- | --- |
| 179 to 181 °C | Nc1ccc(C(=O)c2c(F)cccc2F)c(N)n1 [Cpd 1, (2,6-diamino-3-pyridinyl)(2,6-difluorophenyl)methanone] | > 10 |  |  |  |  |  |  |
|  | CCCCOc1cc(Nc2ccc(S(N)(=O)=O)cc2)nc(N)c1C(=O)c1c(F)cccc1F [Cpd 36, 4-[6-Amino-4-butoxy-5-(2,6-difluoro-benzoyl)-pyridin-2-ylamino]-benzenesulfonamide] | > 100 | 6.78 | 1 | 0.07 | 0.28 | 2.96 | 10.7 |
| 220 to 225 °C | Nc1nc(Nc2ccc([N+](=O)[O-])cc2)ccc1C(=O)c1c(F)cccc1F [Cpd 9, [2-amino-6-[(4-nitrophenyl)amino]-3-pyridinyl](2,6-difluorophenyl)methanone] | > 10 |  |  |  |  |  |  |
|  | CCCCOc1cc(NC(=S)Nc2ccccc2)nc(N)c1C(=O)c1c(F)cccc1F [Cpd 33, 1-[6-Amino-4-butoxy-5-(2,6-difluoro-benzoyl)-pyridin-2-yl]-3-phenyl-thiourea] | > 100 |  | > 100 | ≥ 100 | > 100 |  |  |
|  | CCCCOc1cc(NC(=O)c2ccccc2)nc(N)c1C(=O)c1c(F)cccc1F [Cpd 34, N-[6-Amino-4-butoxy-5-(2,6-difluoro-benzoyl)-pyridin-2-yl]-benzamide] | > 100 |  | > 100 | ≥ 100 | > 100 |  |  |
|  | CCCCOc1cc(N)nc(N)c1C(=O)c1c(F)cccc1F [Cpd 31, (2,6-Diamino-4-butoxy-pyridin-3-yl)-(2,6-difluoro-phenyl)-methanone] | 40.2 |  | 1.14 | 1.32 | 1.16 |  |  |
|  | CCCCOc1cc(NC(=O)Nc2ccccc2)nc(N)c1C(=O)c1c(F)cccc1F [Cpd 32, 1-[6-Amino-4-butoxy-5-(2,6-difluoro-benzoyl)-pyridin-2-yl]-3-phenyl-urea] | > 100 |  | > 100 | ≥ 100 | > 100 |  |  |
| 208 to 210 °C (dec.) | N#Cc1ccc(Nc2ccc(C(=O)c3c(F)cccc3F)c(N)n2)cc1 [Cpd 8, 4-[[6-amino-5-(2,6-difluorobenzoyl)-2-pyridinyl]amino]benzonitrile] | > 10 |  |  |  |  |  |  |
